For one data set, the system named is MDA-MB-231. In words: Antiproliferative activity against human MDA-MB-231 cells assessed as inhibition of cell growth incubated for 48 hrs by MTT assay. Format: functional, cell-based. As to conditions: MDA-MB-231, 48 h. For orientation: Tetrazolium dyes change colour on reduction, which living cells bring about.
The target in data set [1] is T1, Alpha amylase (Homo sapiens, UniProt P0DUB6).
T1 sequence (P0DUB6 whole entry): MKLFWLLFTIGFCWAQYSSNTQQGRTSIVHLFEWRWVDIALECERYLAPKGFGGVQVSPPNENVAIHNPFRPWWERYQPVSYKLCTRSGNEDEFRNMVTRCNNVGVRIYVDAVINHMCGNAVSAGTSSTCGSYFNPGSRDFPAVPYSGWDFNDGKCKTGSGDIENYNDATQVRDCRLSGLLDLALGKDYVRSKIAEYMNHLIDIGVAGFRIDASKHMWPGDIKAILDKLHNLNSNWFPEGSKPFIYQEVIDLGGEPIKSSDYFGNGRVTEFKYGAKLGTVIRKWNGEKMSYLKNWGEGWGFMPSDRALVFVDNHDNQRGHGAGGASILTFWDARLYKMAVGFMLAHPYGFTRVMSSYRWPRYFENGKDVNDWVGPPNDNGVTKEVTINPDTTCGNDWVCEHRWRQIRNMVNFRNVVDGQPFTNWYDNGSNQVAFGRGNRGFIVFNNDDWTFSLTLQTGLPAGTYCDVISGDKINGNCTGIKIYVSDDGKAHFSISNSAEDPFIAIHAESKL
The experiment in a line: Inhibition of alpha-amylase (unknown origin) using starch as substrate preincubated with substrate for 15 mins followed by compound addition and measured after 15 mins by UV-VIS spectrophotometric analysis.

For data set [2], the system named is A549. In words: Antiproliferative activity against human A549 cells assessed as inhibition of cell growth incubated for 48 hrs by MTT assay. Format: functional, cell-based. As to conditions: A549, 48 h.
For another data set, the system named is HCT-116. The experiment in a line: Antiproliferative activity against human HCT-116 cells assessed as inhibition of cell growth incubated for 48 hrs by MTT assay. The format is functional, cell-based. As to conditions: HCT-116, 48 h.
Data set [3] concerns the target T1, Alpha amylase. In words: Inhibition of alpha-amylase (unknown origin).
For data set [4], the system named is A549. The experiment in a line: Induction of ROS in human A549 cells at sub IC50 concentration incubated for 24 hrs by H2DCFDA dye based fluorescence assay (reference value: 33.28%). The format is functional.
The next data set concerns MCF-10A. In words: Cytotoxicity against human MCF-10A assessed as reduction in cell viability upto 10 uM incubated for 48 hrs by MTT assay. The format is toxicity, cell-based.

pIC50: −log10 of the molar value. Bounds are passed on as bounds.

The pIC50 is the IC50 on a negative log10 scale, so that one unit is a factor of ten. A word on the IC50: it is the point on the concentration scale where inhibition reaches its midpoint. Low readings indicate inhibition by little substance, high ones a need for much substance. In the case of `O=C(N/N=C/c1ccccc1)c1csc(Nc2ccc(Cl)cc2)n1`, the pIC50 in the data set on MDA-MB-231 is 5.41; with A549 [2], 5.19; in the data set on HCT-116, 5.12. Also, the IC50 against Alpha amylase [1] is 0.38 µM.
In the case of `COc1cc(-c2nc3ccccc3[nH]2)ccc1OCC(=O)Nc1ccccc1C`, the IC50 at Alpha amylase [3] came out at 11 µM.
As for `COc1ccc(Nc2nc(C(=O)N/N=C/c3ccc(Cl)cc3)cs2)cc1`, the figures for the negative-log IC50 (pIC50) in the data set with MDA-MB-231, in the data set on A549 [2] and in the data set with HCT-116 were 5.03, 4.99 and 4.92, respectively. This compound had an IC50 at Alpha amylase [1] of 0.41 µM.
Regarding `Cc1c(C(=O)N/N=C/c2ccc(O)c(O)c2)oc2ccccc12`, on Alpha amylase [3], the IC50 is 1.24 µM.
Take `O=C(N/N=C/c1ccc(Cl)cc1)c1csc(Nc2ccc(Cl)cc2)n1`: the pIC50 with MDA-MB-231 is below 4.60; in the data set with A549 [2], 4.85; in the data set on HCT-116 it was 4.76. Also, on Alpha amylase [1], the IC50 is 0.39 µM.
For `COc1ccc(Nc2nc(C(=O)N/N=C/c3ccc(O)cc3)cs2)cc1`, in that order: 5.01, 5.10, 5.16 and 0.5 µM.
For the compound `COc1ccc(/C=N/NC(=O)c2csc(Nc3ccc(O)cc3)n2)cc1OC`, the pIC50 was 5.25 in the data set with MDA-MB-231, 5.30 with A549 [2] and 5.22 with HCT-116. On Alpha amylase [1], this compound displayed an IC50 of 0.39 µM.
As for `NNC(=O)c1csc(N/N=C/c2cccc(Br)c2)n1`, the IC50 against Alpha amylase [3] came to 31 µg/mL.
In the case of `COc1ccc(Nc2nc(C(=O)N/N=C/c3ccccc3)cs2)cc1`, the figures for the pIC50 in the data set with MDA-MB-231, with A549 [2] and in the data set with HCT-116 were below 4.60, 5.20 and 5.36, respectively. The compound also showed an IC50 at Alpha amylase [1] of 0.49 µM.
For `COc1ccc(Nc2nc(C(=O)N/N=C/c3ccc(O)c(OC)c3)cs2)cc1`, in that order: 5.31, 5.40, 5.30 and 0.43 µM.
For `O=C(N/N=C/c1ccc(O)cc1)c1csc(Nc2ccc(Cl)cc2)n1`, in that order: 4.81, 5.13, 5.25 and 0.41 µM.
For `O=C(N/N=C/c1ccccc1)c1csc(Nc2ccccc2)n1` the same measures were below 4.60, 5.22, 5.19 and 0.48 µM.
For the compound `O=C(N/N=C/c1ccc(O)cc1)c1csc(Nc2ccccc2)n1`, the negative logarithm of the IC50 (pIC50) in the data set with MDA-MB-231 is 5.08; with A549 [2] it was 4.95; in the data set with HCT-116, 5.35. The same compound came in with an IC50 at Alpha amylase [1] of 0.45 µM.
For `COc1ccc(Nc2nc(C(=O)N/N=C/c3ccc(OC)c(OC)c3)cs2)cc1` the same measures were 5.49, 5.53, 5.64 and 0.43 µM.
For `COc1ccc(Nc2nc(C(=O)N/N=C/c3cccc(N)c3)cs2)cc1` the same measures were below 4.60, 5.00, 4.83 and 0.46 µM.
Turning to `Cc1ccc([C@H]2C3CSCN3[C@@]3(C(=O)Nc4ccccc43)[C@]23N=C(c2ccccc2)OC3=O)cc1` (some centres not stated), the IC50 at Alpha amylase [3] was determined as 1.76 µM. This counts as single-digit micromolar.
In the case of `O=C(N/N=C/c1ccc(O)c(O)c1)c1csc(Nc2ccc(Cl)cc2)n1`, the negative-log IC50 (pIC50) in the data set with MDA-MB-231 is 5.25; with A549 [2] it was 5.29; in the data set on HCT-116 it was 5.27. At Alpha amylase [1], this compound had a 50% inhibitory concentration (IC50) of 0.39 µM.
As for `COc1cc(/C=N/NC(=O)c2csc(Nc3ccc([N+](=O)[O-])cc3)n2)cc(OC)c1OC`, the Activity in the data set on A549 [4] is 22.34%; in the data set on MCF-10A, “Non-Toxic”. For the same compound, the values for the pIC50 in the data set on MDA-MB-231, in the data set on A549 [2] and with HCT-116 were 5.57, 5.79 and 5.99, respectively. The half-maximal inhibitory concentration (IC50) against Alpha amylase [1] came to 0.26 µM.
As to `O=C(N/N=C/c1ccc(O)c(O)c1)c1csc(Nc2ccccc2)n1`, the pIC50 in the data set on MDA-MB-231 was 4.83; in the data set with A549 [2], 5.01; in the data set on HCT-116, 4.91. Also, the IC50 on Alpha amylase [1] came to 0.45 µM.
For `COc1ccc(/C=N/NC(=O)c2csc(Nc3ccc(Cl)cc3)n2)cc1`, in that order: 4.79, 4.95, 4.88 and 0.4 µM.
For `COc1ccc(/C=N/NC(=O)c2csc(Nc3ccc(OC)cc3)n2)cc1` the same measures were 5.16, 5.10, 5.11 and 0.47 µM.
For `O=C(N/N=C/c1ccccc1)c1csc(Nc2ccc([N+](=O)[O-])cc2)n1`, in that order: 4.63, 4.95, 5.14 and 0.37 µM.
Turning to `C/C(=N\NC(=O)c1csc(Nc2ccc(Cl)cc2)n1)c1ccccn1`, the pIC50 with MDA-MB-231 is 4.88; in the data set with A549 [2], 4.69; in the data set with HCT-116, 4.88. In addition, on Alpha amylase [1], the IC50 amounted to 0.35 µM.
`CC(=O)c1sc(N/N=C(/C)c2ccc(Cl)cc2)nc1C` showed a 50% inhibitory concentration (IC50) on Alpha amylase [3] of 4.79 µM.
`COc1cc(/C=N/NC(=O)c2csc(Nc3ccccc3)n2)ccc1O`: the pIC50 with MDA-MB-231 was 4.84; with A549 [2] it was 4.92; in the data set on HCT-116, 5.00. Also, at Alpha amylase [1], the IC50 turned out to be 0.41 µM.
Take `C#Cc1cccc(Nc2ncnc3cc(OCCOC)c(OCCOC)cc23)c1` [ERLOTINIB]: the pIC50 in the data set on MDA-MB-231 is 5.60; in the data set with A549 [2] it was 5.91; in the data set with HCT-116, 5.95.
Turning to `O=C(N/N=C/c1ccc(Cl)cc1)c1csc(Nc2ccc([N+](=O)[O-])cc2)n1`, the Activity was 28.62% with A549 [4] and “Non-Toxic” in the data set with MCF-10A. The negative-log IC50 (pIC50) in the data set with MDA-MB-231 was 5.17; with A549 [2] it was 5.58; with HCT-116 it was 5.53. The same compound gave an IC50 on Alpha amylase [1] of 0.29 µM.
For the compound `O=C(N/N=C/c1ccc(F)cc1)c1csc(Nc2ccc([N+](=O)[O-])cc2)n1`, the figures for the pIC50 in the data set with MDA-MB-231, with A549 [2] and with HCT-116 were 5.08, 5.27 and 5.12, respectively. The IC50 on Alpha amylase [1] came to 0.34 µM.
For `COc1cc(/C=N/NC(=O)c2csc(Nc3ccc(Cl)cc3)n2)ccc1O`, in that order: 5.18, 5.67, 5.54 and 0.32 µM.
For `COc1ccc(/C=N/NC(=O)c2csc(Nc3ccc([N+](=O)[O-])cc3)n2)cc1` the same measures were 4.85, 5.05, 5.33 and 0.32 µM.
In the case of `COc1cc2c(c(OC)c1OC)-c1ccc(OC)c(=O)cc1[C@@H](NC(C)=O)CC2` [COLCHICINE], the pIC50 with MDA-MB-231 was 5.70; in the data set on A549 [2], 5.96; in the data set on HCT-116 it was 5.73.
Compound `O=C1CS/C(=N\N=C\c2ccc(OS(=O)(=O)c3ccccc3[N+](=O)[O-])cc2)N1` displayed a half-maximal inhibitory concentration (IC50) against Alpha amylase [3] of 42.8 µM.
Consider `COc1cc(/C=N/NC(=O)c2csc(Nc3ccc([N+](=O)[O-])cc3)n2)ccc1O`, for which the Activity in the data set on A549 [4] is reported as 27.19%; with MCF-10A it was “Non-Toxic”. For the same compound, the results for the pIC50 in the data set with MDA-MB-231, with A549 [2] and in the data set on HCT-116 were 5.30, 5.70 and 5.61, respectively. The same compound came in with an IC50 against Alpha amylase [1] of 0.24 µM.
Take `O=C(N/N=C/c1cccc(F)c1)c1csc(Nc2ccccc2)n1`: the pIC50 in the data set on MDA-MB-231 was 5.11; with A549 [2], 5.07; in the data set with HCT-116 it was 5.02. On Alpha amylase [1], this compound gave an IC50 of 0.43 µM.

These data come from ChEMBL document CHEMBL5252673, “Development of thiazole-appended novel hydrazones as a new class of α-amylase inhibitors with anticancer assets: an in silico and in vitro approach” (RSC Med Chem, 2023).
